The test system of data set [1] is Leptosphaeria nodorum (LEPTNO). Briefly: In vitro fungitoxicity of hydrazones with and without copper towards Leptosphaeria nodorum (Example 26). It is filed as cell-based. The note with it: test compound Concn. 0.05 μg/mL, 72 h at 25° C.; for inhibition of growth at 0.05 µg/mL: Parastagonospora nodorum, 72 h, copper-minus medium, read-out: LEPTNO % Inhn. Minus Copper Observed; for LEPTNO % Inhn. Plus Copper Observed: copper-plus medium (CuCl2 10 μM).

Data set [2] concerns Phytophthora infestans. It is filed as in vivo, Phytophthora infestans on tomato. The note with it: hydrazone 50 ppm with 50 μM CuCl2.2H2O, applied 24 h before inoculation; assessed 7 days after inoculation; tomato late blight.

Usually melting point stands for the temperature of the solid-liquid transition. Regarding `C/C(=N\NC(=O)c1cccc(Cl)c1)c1cc(C(F)(F)F)ccc1O` [Example 532], the melting point lay within 241 to 245 °C. In data set [1], the inhibition of growth at 0.05 µg/mL was found to be 4.9% and the “LEPTNO % Inhn. Plus Copper Observed” value is recorded as 91.4%. Besides, the “TLB % Control” value in data set [2] turned out to be 56.0%.
In the same order, the values of `C/C(=N\NC(=O)c1ccc(Cl)cc1)c1cc(C(F)(F)F)ccc1O` [Example 533] are 263 to 265 °C, 6.2%, 97.0% and 34.0%.
In the same order, the values of `COc1ccc(C(=O)N/N=C(\C)c2cc(C(F)(F)F)ccc2O)cc1` [Example 534] are 228 to 231 °C, 5.1%, 95.7% and 61.0%.
`C/C(=N\NC(=O)c1ccc(Br)cc1)c1cc(C(F)(F)F)ccc1O` [Example 535] had a melting point of 256 to 259 °C. Moreover, in data set [1], the inhibition of growth at 0.05 µg/mL was determined as 10.1% and the “LEPTNO % Inhn. Plus Copper Observed” value was 97.7%. For the same compound, the “TLB % Control” value in data set [2] was determined as 56.0%.
For `C/C(=N\NC(=O)c1ccc(C(F)(F)F)cc1)c1cc(C(F)(F)F)ccc1O` [Example 536] the same measures were 228 to 234 °C, 21.1%, 93.4% and 24.0%.
Consider `C/C(=N\NC(=O)c1ccccc1Br)c1cc(C(F)(F)F)ccc1O` [Example 537], for which the melting point lay within 192 to 200 °C. In addition, in data set [1], the inhibition of growth at 0.05 µg/mL is 12.2% and the “LEPTNO % Inhn. Plus Copper Observed” value was 96.2%. Besides, the “TLB % Control” value in data set [2] was 90.0%.
For `C/C(=N\NC(=O)c1ccccc1)c1cc(Br)cc(Br)c1O` [Example 539] the same measures were 242 to 245 °C, 1.6%, 98.0% and 100.0%.
In turn, `C/C(=N\NC(=O)c1ccccc1C)c1cc(Br)cc(Br)c1O` [Example 540] came in with a melting point of 221 to 222 °C. Besides, in data set [1], the inhibition of growth at 0.05 µg/mL is 0% and the “LEPTNO % Inhn. Plus Copper Observed” value is 97.5%. Besides, the “TLB % Control” value in data set [2] came to 95.0%.
As to `C/C(=N\NC(=O)c1cccc(C)c1)c1cc(Br)cc(Br)c1O` [Example 541], the melting point was in the range of 236 to 238 °C. Besides, in data set [1], the inhibition of growth at 0.05 µg/mL is 0% and the “LEPTNO % Inhn. Plus Copper Observed” value was found to be 97.5%. The “TLB % Control” value in data set [2] is reported as 93.0%.
In the same order, the values of `C/C(=N\NC(=O)c1ccc(C)cc1)c1cc(Br)cc(Br)c1O` [Example 542] are 258 to 259 °C, 0%, 95.8% and 100.0%.
For `C/C(=N\NC(=O)c1ccccc1Cl)c1cc(Br)cc(Br)c1O` [Example 543], the melting point was 207 to 209 °C. In data set [1], the inhibition of growth at 0.05 µg/mL stood at 1.3% and the “LEPTNO % Inhn. Plus Copper Observed” value was 93.9%. For the same compound, in data set [2], the “TLB % Control” value is recorded as 100.0%.
For `C/C(=N\NC(=O)c1cccc(Cl)c1)c1cc(Br)cc(Br)c1O` [Example 544] the same measures were 255 to 256 °C, 6.9%, 97.6% and 97.0%.
Regarding `C/C(=N\NC(=O)c1ccc(Cl)cc1)c1cc(Br)cc(Br)c1O` [Example 545], the melting point is 255 to 258 °C. Besides, in data set [1], the inhibition of growth at 0.05 µg/mL is 19.6% and the “LEPTNO % Inhn. Plus Copper Observed” value amounted to 97.9%. Moreover, in data set [2], the “TLB % Control” value stood at 95.0%.
`COc1ccc(C(=O)N/N=C(\C)c2cc(Br)cc(Br)c2O)cc1` [Example 546]: the melting point was 247 to 248 °C. Also, in data set [1], the inhibition of growth at 0.05 µg/mL is 7.6% and the “LEPTNO % Inhn. Plus Copper Observed” value worked out at 97.7%. Further, in data set [2], the “TLB % Control” value is 100.0%.
As for `C/C(=N\NC(=O)c1ccc(Br)cc1)c1cc(Br)cc(Br)c1O` [Example 547], the melting point lay within 264 to 266 °C. Besides, in data set [1], the inhibition of growth at 0.05 µg/mL came to 10.8% and the “LEPTNO % Inhn. Plus Copper Observed” value turned out to be 97.7%. Moreover, the “TLB % Control” value in data set [2] is reported as 88.0%.
In turn, `C/C(=N\NC(=O)c1ccc(C(F)(F)F)cc1)c1cc(Br)cc(Br)c1O` [Example 548] displayed a melting point of 255 to 257 °C. Also, in data set [1], the inhibition of growth at 0.05 µg/mL is 6.7% and the “LEPTNO % Inhn. Plus Copper Observed” value is on record as 97.5%. For the same compound, the “TLB % Control” value in data set [2] was 98.0%.
In the same order, the values of `C/C(=N\NC(=O)c1ccccc1Br)c1cc(Br)cc(Br)c1O` [Example 549] are 214 to 216 °C, 0%, 97.3% and 94.0%.
Consider `C/C(=N\NC(=O)c1ccccc1O)c1cc(Br)cc(Br)c1O` [Example 550], for which the melting point fell in the range of 305 to 306 °C. In addition, in data set [1], the inhibition of growth at 0.05 µg/mL is 4.6% and the “LEPTNO % Inhn. Plus Copper Observed” value is listed as 97.2%. The “TLB % Control” value in data set [2] is 63.0%.
For `COc1ccc(/C(C)=N/NC(=O)c2ccccc2)c(O)c1OC` [Example 551] the same measures were 154 to 155 °C, 1.7%, 96.0% and 90.0%.
In turn, `COc1ccc(/C(C)=N/NC(=O)c2ccccc2C)c(O)c1OC` [Example 552] yielded a melting point of 150 to 152 °C. In data set [1], the inhibition of growth at 0.05 µg/mL stood at 0% and the “LEPTNO % Inhn. Plus Copper Observed” value is given as 94.2%. Further, in data set [2], the “TLB % Control” value worked out at 71.0%.
For `COc1ccc(/C(C)=N/NC(=O)c2cccc(C)c2)c(O)c1OC` [Example 553] the same measures were 158 to 162 °C, 0%, 93.2% and 88.0%.
`COc1ccc(/C(C)=N/NC(=O)c2ccc(C)cc2)c(O)c1OC` [Example 554] had a melting point of 245 to 249 °C. Moreover, in data set [1], the inhibition of growth at 0.05 µg/mL came to 0% and the “LEPTNO % Inhn. Plus Copper Observed” value was 97.3%. In addition, in data set [2], the “TLB % Control” value is given as 100.0%.
In the same order, the values of `COc1ccc(/C(C)=N/NC(=O)c2ccccc2Cl)c(O)c1OC` [Example 555] are 77 to 86 °C, 3.7%, 92.5% and 46.0%.
For `COc1ccc(/C(C)=N/NC(=O)c2cccc(Cl)c2)c(O)c1OC` [Example 556], the melting point lay within 194 to 201 °C. In data set [1], the inhibition of growth at 0.05 µg/mL is 7.7% and the “LEPTNO % Inhn. Plus Copper Observed” value came out at 95.9%. The “TLB % Control” value in data set [2] is on record as 75.0%.
The compound `COc1ccc(/C(C)=N/NC(=O)c2ccc(Cl)cc2)c(O)c1OC` [Example 557] registered a melting point of 230 to 235 °C. In addition, in data set [1], the inhibition of growth at 0.05 µg/mL was 13% and the “LEPTNO % Inhn. Plus Copper Observed” value was 95.7%. The “TLB % Control” value in data set [2] turned out to be 90.0%.
Turning to `COc1ccc(C(=O)N/N=C(\C)c2ccc(OC)c(OC)c2O)cc1` [Example 558], the melting point lay in the range of 230 to 232 °C. For the same compound, in data set [1], the inhibition of growth at 0.05 µg/mL was 3.8% and the “LEPTNO % Inhn. Plus Copper Observed” value was found to be 95.7%. The “TLB % Control” value in data set [2] was 80.0%.
On to `COc1ccc(/C(C)=N/NC(=O)c2ccc(Br)cc2)c(O)c1OC` [Example 559], for which the melting point was 241 to 245 °C. In data set [1], the inhibition of growth at 0.05 µg/mL came to 10% and the “LEPTNO % Inhn. Plus Copper Observed” value is 97.3%. In data set [2], the “TLB % Control” value worked out at 93.0%.
In the same order, the values of `COc1ccc(/C(C)=N/NC(=O)c2ccc(C(F)(F)F)cc2)c(O)c1OC` [Example 560] are 229 to 233 °C, 1.3%, 90.7% and 65.0%.
In the same order, the values of `COc1ccc(/C(C)=N/NC(=O)c2ccccc2Br)c(O)c1OC` [Example 561] are 195 to 200 °C, 0%, 92.2% and 60.0%.
For `COc1ccc(/C(C)=N/NC(=O)c2ccccc2O)c(O)c1OC` [Example 562] the same measures were 279 to 297 °C, 1.4%, 97.3% and 91.0%.
In turn, `O=C(N/N=C/c1cc(Cl)cc(Cl)c1O)c1cc2ccccc2cc1O` [Example 563] showed a melting point of 287 to 292 °C. In data set [1], the inhibition of growth at 0.05 µg/mL was determined as 20.6% and the “LEPTNO % Inhn. Plus Copper Observed” value was 96.9%. In addition, the “TLB % Control” value in data set [2] is 70.0%.
In the same order, the values of `C/C(=N\NC(=O)c1cc2ccccc2cc1O)c1cc(Cl)cc(Cl)c1O` [Example 564] are 312 to 315 °C, 17.4%, 94.2% and 1.3%.
In turn, `C/C(=N\NC(=O)c1cccc(C)c1O)c1cc(Cl)cc(Cl)c1O` [Example 565] had a melting point of 278 to 279 °C. In data set [1], the inhibition of growth at 0.05 µg/mL was 12.2% and the “LEPTNO % Inhn. Plus Copper Observed” value stood at 97.4%. Further, the “TLB % Control” value in data set [2] is listed as 98.0%.
`COc1cc(O)c(/C(C)=N/NC(=O)c2ccc(C)cc2)c(OC)c1` [Example 566] yielded a melting point of 177 to 184 °C. In data set [1], the inhibition of growth at 0.05 µg/mL worked out at 6.8% and the “LEPTNO % Inhn. Plus Copper Observed” value is on record as 95.9%. The “TLB % Control” value in data set [2] stood at 70.0%.

The record behind these values is patent US20120010075A1 (priority 2009, published 2012).
